pIC50: −log10 of the molar value.

One may read the pIC50 as the IC50 on a negative log10 scale, so that one unit is a factor of ten.

This test concerns the target T1, human RORγt (Homo sapiens, UniProt P51449).
T1 construct: the full-length cDNA of human RORγt; expressed in transfected cells; host or cells: COS-7 (monkey kidney)
T1 sequence (P51449 1-497 isoform P51449-2): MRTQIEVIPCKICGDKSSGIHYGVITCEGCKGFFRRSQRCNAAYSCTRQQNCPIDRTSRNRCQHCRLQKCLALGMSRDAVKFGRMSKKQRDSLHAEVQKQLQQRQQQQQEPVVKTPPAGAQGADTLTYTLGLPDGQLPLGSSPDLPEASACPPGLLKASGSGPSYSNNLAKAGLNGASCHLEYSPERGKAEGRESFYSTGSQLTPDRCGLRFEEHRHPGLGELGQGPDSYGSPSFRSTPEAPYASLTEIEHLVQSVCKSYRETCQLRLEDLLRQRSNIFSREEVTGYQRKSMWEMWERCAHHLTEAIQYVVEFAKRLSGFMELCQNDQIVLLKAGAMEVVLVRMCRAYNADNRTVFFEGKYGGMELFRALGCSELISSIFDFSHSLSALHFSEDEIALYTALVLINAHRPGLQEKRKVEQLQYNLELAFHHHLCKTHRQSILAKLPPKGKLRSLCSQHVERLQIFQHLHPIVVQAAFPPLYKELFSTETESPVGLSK
As to the kind of experiment: RORE Luciferase/RORγt transactivation assay. The class given is cell-based. Particulars: COS-7 cells transfected with human IL-17 promoter luciferase reporter and RORγt plasmid; 20 h with compound; read-out: IC50, RORγt activity inhibition. Here is the method: It is well known that RORγ binds to a conserved non-coding sequence (CNS) enhancer element in the IL-17 promoter.
Culture medium was changed every 2 days.
The 4.3 Kb human IL-17 promoter containing the RORγ-specific CNS enhancer element was PCR amplified from human genomic DNA and cloned into a pGL3-TKLuc2Cp reporter plasmid.
The luciferase reporter plasmid and the RORγt overexpression plasmid were transfected into COS-7 cell line using 4 μLJetPEI™/μg of DNA. Briefly, 150 ng of DNA (ration ½ between RORE-Tk Luc2Cp and cDNA RORγt or the empty vector for the negative control) was served to transfect adherent COS-7 cells in a […] culture flask, in complete medium (see cos-7 cell line culture).
Cells were then detached (using trypsin) and washed by centrifugation at 300 g for 10 minutes. Cell pellet was resuspended in serum free/phenol red free DMEM and seeded in 384 well plates at a density of 10000 cells/well and then incubated for 4 h at 37° C.
Compounds were dissolved in 100% DMSO to obtain 10 mM stock solutions. For each compound, test concentrations were diluted in serum free/phenol red free DMEM using the Genesis Freedom 200™ (TECAN) and added to the cells to obtain a 0.3% DMSO final concentration (in a final volume of 40 μL per well).
The luciferase activity was then measured with 40 μL/well steady-Glo Luciferase assay system (Promega, Madison, Wis.) and after incubation at room temperature for 30 minutes. The luminescence was estimated using the Ultra384 reader (TECAN). Data were collected and analyzed using GraphPad Prism software (GraphPad Software V5.02, San Diego Calif. USA). IC50 in μM and Emax in % were reported for each compound.
For the compound `Cc1ccc(C(NC(=O)C2(c3ccc4c(c3)OCO4)CC2)c2ccc(C)o2)c(C)c1` (stereo not drawn) [Cpd. 137, 1-(2H-1,3-benzodioxol-5-yl)-N-[(2,4-dimethylphenyl)(5-methylfuran-2-yl)methyl]cyclopropane-1-carboxamide], the pIC50 is 7.00 to 8.00.

Regarding `Cc1ccc(C(NC(=O)C2(c3ccc4c(c3)OCC(=O)N4)CC2)c2ccco2)c(C)c1` (stereo not drawn) [Cpd. 139, N-[(2,4-dimethylphenyl)(furan-2-yl)methyl]-1-(3-oxo-3,4-dihydro-2H-1,4-benzoxazin-7-yl)cyclopropane-1-carboxamide], the pIC50 was 7.00 to 8.00.

In the case of `Cc1ccc(C(NC(=O)C2(c3ccc4c(c3)OCC(=O)N4)CC2)c2ccc(Cl)cc2)c(C)c1` (stereo not drawn) [Cpd. 140, N-[(4-chlorophenyl)(2,4-dimethylphenyl)methyl]-1-(3-oxo-3,4-dihydro-2H-1,4-benzoxazin-7-yl)cyclopropane-1-carboxamide], the pIC50 is 5.00 to 6.00.

Consider `Cc1ccc(C(NC(=O)C2(c3ccc4c(c3)CCC4=O)CC2)c2ccc(C)o2)c(C)c1` (stereo not drawn) [Cpd. 141, N-[(2,4-dimethylphenyl)(5-methylfuran-2-yl)methyl]-1-(1-oxo-2,3-dihydro-1H-inden-5-yl)cyclopropane-1-carboxamide], for which the pIC50 was 6.00 to 7.00.

In the case of `Cc1ccc(C(NC(=O)C2(c3ccc4c(c3)OCC(=O)N4)CC2)c2cccc(Cl)c2)c(C)c1` (stereo not drawn) [Cpd. 143, N-[(3-chlorophenyl)(2,4-dimethylphenyl)methyl]-1-(3-oxo-3,4-dihydro-2H-1,4-benzoxazin-7-yl)cyclopropane-1-carboxamide], the pIC50 was 7.00 to 8.00.

On to `Cc1ccc(C(NC(=O)C2(c3ccc4c(n3)OCC(=O)N4)CC2)c2ccc(C)o2)c(C)c1` (stereo not drawn) [Cpd. 144, N-[(2,4-dimethylphenyl)(5-methylfuran-2-yl)methyl]-1-{2-oxo-1H,2H,3H-pyrido[2,3-b][1,4]oxazin-6-yl}cyclopropane-1-carboxamide], for which the pIC50 is 7.00 to 8.00.

Regarding `Cc1ccc(C(NC(=O)C2(c3ccc4c(c3)OCC(=O)N4)CC2)c2ccc(Cl)o2)c(N2CCCCC2)c1` (stereo not drawn) [Cpd. 145, N-[(5-chlorofuran-2-yl)[4-methyl-2-(piperidin-1-yl)phenyl]methyl]-1-(3-oxo-3,4-dihydro-2H-1,4-benzoxazin-7-yl)cyclopropane-1-carboxamide], the pIC50 was 7.00 to 8.00.

With `Cc1ccc(C(NC(=O)C2(c3ccc4c(c3)C(C)(C)C(=O)N4)CC2)c2ccc(C)o2)c(C)c1` (stereo not drawn) [Cpd. 146, 1-(3,3-dimethyl-2-oxo-2,3-dihydro-1H-indol-5-yl)-N-[(2,4-dimethylphenyl)(5-methylfuran-2-yl)methyl]cyclopropane-1-carboxamide], the pIC50 was 7.00 to 8.00.

As for `COc1ccc(C(NC(=O)C2(c3ccc4c(c3)OCS(=O)(=O)N4)CC2)c2ccc(C)o2)c(Br)c1` (stereo not drawn) [Cpd. 147, N-[(2-bromo-4-methoxyphenyl)(5-methylfuran-2-yl)methyl]-1-(2,2-dioxo-1,3-dihydro-4,2,1-benzoxathiazin-6-yl)cyclopropane-1-carboxamide], the pIC50 was 7.00 to 8.00.

As for `Cc1ccc(C(NC(=O)C2(c3ccc4c(c3)OCS(=O)(=O)N4)CC2)c2ccc(C)o2)c(N(C)C)c1` (stereo not drawn) [Cpd. 148, N-{[2-(dimethylamino)-4-methylphenyl](5-methylfuran-2-yl)methyl}-1-(2,2-dioxo-1,3-dihydro-4,2,1-benzoxathiazin-6-yl)cyclopropane-1-carboxamide], the pIC50 is 6.00 to 7.00.

For the compound `Cc1ccc(C(NC(=O)C2(c3ccc4c(c3)OCS(=O)(=O)N4)CC2)c2ccc(Cl)o2)c(C)c1` (stereo not drawn) [Cpd. 149, N-[(5-chlorofuran-2-yl)(2,4-dimethylphenyl)methyl]-1-(2,2-dioxo-1,3-dihydro-4,2,1-benzoxathiazin-6-yl)cyclopropane-1-carboxamide], the pIC50 was 7.00 to 8.00.

In the case of `Cc1ccc(C(NC(=O)Cc2ccc3c(c2)OCS(=O)(=O)N3)c2ccc(C)o2)c(Br)c1` (stereo not drawn) [Cpd. 150, N-[(2-bromo-4-methylphenyl)(5-methylfuran-2-yl)methyl]-2-(2,2-dioxo-1,3-dihydro-4,2,1-benzoxathiazin-6-yl)acetamide], the negative logarithm of the IC50 (pIC50) was 6.00 to 7.00.

The values are drawn from patent US11052092B2, “N-{[2-(piperidin-1-yl)phenyl](phenyl)methyl}-2-(3-oxo-3,4-dihydro-2H-1,4-benzoxazin-7-yl)acetamide derivatives and related compounds as ROR-gamma modulators for treating autoimmune diseases” (Genfit, priority 2017, dated 2021).
